Experimental data reported in paper PMC6424957 (Scientific Reports, 2019).

Key:
[1] = biological target: T1, human erythrocyte acetylcholinesterase (AChE) (Homo sapiens, UniProt P22303); test: biochemical; assay type: biochemical; settings: mean ± SEM, n ≥ 3
T1 construct: Acetylcholinesterase (AChE, EC 3.1.1.7, from human erythrocyte); purchased Sigma-Aldrich (Germany); host or cells: human erythrocytes
Method: (§1) Acetylcholinesterase (AChE, EC 3.1.1.7, from human erythrocyte and E. electricus (EeAChE) (type VI-S), butyrylcholinesterase (BChE, EC 3.1.1.8, from equine serum), carboxylesterase (CaE, EC 3.1.1.1, from porcine liver), acetylthiocholine iodide (ATCh), butylthiocholine iodide (BTCh), 5,5′-dithiobis-(2-nitrobenzoic acid) (DTNB), 4-nitrophenyl acetate (4-NPA), were purchased from Sigma-Aldrich (Germany).
(§2) AChE and BChE activities were measured by the Ellman method as described earlier. The assay solution consisted of 0.1 M K/Na phosphate buffer pH 7.5, 25 °C with the addition of 0.33 mM DTNB, 0.02 unit/mL of AChE or BChE, and 1 mM of substrate (ATCh or BTCh, respectively). The assays were carried out with a reagent blank containing all components except AChE or BChE to account for non-enzymatic hydrolysis of substrate. In addition, an enzyme blank was included that contained all components except substrate to account for non-substrate sulfhydryl groups. […] The assay solution consisted of 0.1 M K/Na phosphate buffer pH 8.0, 25 °C with the addition of 1 mM 4-nitrophenyl acetate and 0.02 unit/mL of CaE. Assays were carried out with a blank containing all components except CaE.
(§3) The test compounds were dissolved in DMSO; the incubation mixture contained 2% (v/v) of the solvent. […] The test compounds were added to the assay solution and preincubated at 25°C with the enzymes for 5 min followed by the addition of substrate. A parallel control was made for the assay solution with no inhibitor. […] Each experiment was performed three times. The results were expressed as the mean ± SEM. The reaction rates in the presence and absence of inhibitor were compared, and the percent of residual enzyme activity due to the presence of test compounds was calculated.

[2] = biological target: T2, Electrophorus electricus AChE (EeAChE) (Electrophorus electricus, UniProt O42275); test: biochemical; assay type: biochemical
T2 construct: from human erythrocyte and E. electricus (EeAChE) (type VI-S); purchased Sigma-Aldrich (Germany) type VI-S; host or cells: Electrophorus electricus tissue
T2 sequence (O42275 24-633): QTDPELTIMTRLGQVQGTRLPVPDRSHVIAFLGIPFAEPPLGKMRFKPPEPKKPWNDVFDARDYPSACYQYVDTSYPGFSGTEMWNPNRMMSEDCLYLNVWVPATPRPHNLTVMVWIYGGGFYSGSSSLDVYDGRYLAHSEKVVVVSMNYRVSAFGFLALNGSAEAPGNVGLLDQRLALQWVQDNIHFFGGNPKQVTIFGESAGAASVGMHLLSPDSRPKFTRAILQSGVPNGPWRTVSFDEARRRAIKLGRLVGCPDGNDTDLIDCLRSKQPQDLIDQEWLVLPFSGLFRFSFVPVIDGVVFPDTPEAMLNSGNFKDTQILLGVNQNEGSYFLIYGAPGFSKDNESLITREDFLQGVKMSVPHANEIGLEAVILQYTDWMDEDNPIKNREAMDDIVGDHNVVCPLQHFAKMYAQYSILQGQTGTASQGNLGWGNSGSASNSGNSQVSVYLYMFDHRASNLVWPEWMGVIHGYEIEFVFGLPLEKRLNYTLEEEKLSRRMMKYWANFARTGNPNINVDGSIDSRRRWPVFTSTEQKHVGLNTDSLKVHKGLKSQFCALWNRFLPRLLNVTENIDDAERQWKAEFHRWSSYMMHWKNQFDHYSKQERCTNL
Method: as §1, §2, §3

[3] = biological target: T3, equine serum butyrylcholinesterase (BChE) (Equus caballus, UniProt P81908); test: biochemical; assay type: biochemical; settings: mean ± SEM, n ≥ 3
T3 construct: butyrylcholinesterase (BChE, EC 3.1.1.8, from equine serum); purchased Sigma-Aldrich (Germany); host or cells: equine serum
T3 sequence (P81908 whole entry): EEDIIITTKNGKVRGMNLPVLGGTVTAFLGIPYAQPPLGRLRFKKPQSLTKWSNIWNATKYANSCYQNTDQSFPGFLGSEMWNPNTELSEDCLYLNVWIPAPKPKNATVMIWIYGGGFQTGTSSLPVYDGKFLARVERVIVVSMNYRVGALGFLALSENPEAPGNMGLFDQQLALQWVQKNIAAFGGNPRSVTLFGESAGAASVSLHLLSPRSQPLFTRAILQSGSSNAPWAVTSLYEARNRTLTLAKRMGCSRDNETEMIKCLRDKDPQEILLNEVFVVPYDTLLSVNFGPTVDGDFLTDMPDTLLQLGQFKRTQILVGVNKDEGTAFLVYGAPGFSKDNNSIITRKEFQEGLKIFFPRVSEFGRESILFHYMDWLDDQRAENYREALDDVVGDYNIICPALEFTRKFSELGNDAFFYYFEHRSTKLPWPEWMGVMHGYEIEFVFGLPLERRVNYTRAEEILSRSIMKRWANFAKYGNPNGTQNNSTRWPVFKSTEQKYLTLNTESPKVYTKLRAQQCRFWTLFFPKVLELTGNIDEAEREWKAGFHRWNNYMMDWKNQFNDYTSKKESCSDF
Method: as §1, §2, §3

[4] = tested on: isolated rat liver mitochondria; test: Inhibition of iron-induced lipid peroxidation (TBARs); settings: read-out: IC50 of Fe3+-induced LP, LP induced by 0.5 mM Fe3+, mean ± SEM, n ≥ 3
[5] = Oxygen radical absorbance capacity assay (ORAC-FL); settings: ORAC-FL, AAPH, fluorescein, 37 °C, pH 7.4; Trolox taken as 1
Method: The ability of the conjugates to reduce the amount of peroxyl radicals as another characteristic of the antioxidant activity of the compounds was determined using the oxygen radical absorbance capacity by fluorescence (ORAC-FL) method using fluorescein (FL) as a fluorescent probe. The method is based on measuring the decrease in the intensity of fluorescence with time, which characterizes the degree of decay of the fluorescent probe under the influence of peroxyl radicals. In the presence of antioxidants, the degree of decay of the fluorescent probe decreases and, accordingly, the fluorescence time increases.
The ability of compounds to scavenge peroxyl radicals was characterized by the value of the Trolox equivalent (TE, μmol of Trolox per μmol of the tested compound), which is equal to the ratio of the Trolox concentration to the tested compound concentration having the same fluorescence intensity. Peroxyl radical scavenging capacity of Trolox is taken as one (1)[67],[68].
2,2′-Azobis-(amidinopropane) dihydrochloride (AAPH), (±)-6-hydroxy-2,5,7,8-tetramethylchromane-2-carboxylic acid (Trolox) and fluorescein (FL) were purchased from Sigma-Aldrich. The reaction was carried out at 37 °C in 75 mM K,Na phosphate buffer (pH 7.4), and the final reaction mixture was 200 µL. The tested compounds and Trolox standard were dissolved in DMSO to 10 mM and further diluted in 75 mM K,Na phosphate buffer (pH 7.4). […] The blank was composed of 20 µL 75 mM K,Na phosphate buffer (pH 7.4) containing 2% (v/v) DMSO, 120 µL FL and 60 µL AAPH, and was added in each assay. Antioxidant (the test compound or Trolox, 20 µL) and FL (120 µL, final concentration: 70 nM) solutions were placed in a black 96-well microplate and were pre-incubated for 15 min at 37 °C. AAPH solution (60 µL, final concentration 12 mM) was then added rapidly using a multichannel pipette. The fluorescence was recorded every minute for 100 min. A Trolox standard curve was also obtained in each assay. All reactions were carried out in triplicate and at least three different assays were performed for each sample.
Antioxidant curves (fluorescence vs. time) were first normalized to the curve of the blank (without antioxidant) corresponding to the same assay, and the area under the fluorescence decay curve (AUC) was calculated. The net AUC corresponding to a sample was calculated by subtracting the AUC corresponding to the blank. Regression equations were calculated by plotting the net AUC against the antioxidant concentration. The ORAC value was obtained by dividing the slope of the latter curve by the slope of the Trolox curve obtained in the same assay. […] Data were expressed as means ± SEM.

[6] = biological target: T4, porcine liver carboxylesterase (CaE) (Sus scrofa, UniProt Q29550); test: CaE inhibition (4-nitrophenyl acetate hydrolysis); assay type: biochemical; settings: 20 µM, mean ± SEM, n ≥ 3, n.a. = not active at 20 µM
T4 sequence (Q29550 19-566): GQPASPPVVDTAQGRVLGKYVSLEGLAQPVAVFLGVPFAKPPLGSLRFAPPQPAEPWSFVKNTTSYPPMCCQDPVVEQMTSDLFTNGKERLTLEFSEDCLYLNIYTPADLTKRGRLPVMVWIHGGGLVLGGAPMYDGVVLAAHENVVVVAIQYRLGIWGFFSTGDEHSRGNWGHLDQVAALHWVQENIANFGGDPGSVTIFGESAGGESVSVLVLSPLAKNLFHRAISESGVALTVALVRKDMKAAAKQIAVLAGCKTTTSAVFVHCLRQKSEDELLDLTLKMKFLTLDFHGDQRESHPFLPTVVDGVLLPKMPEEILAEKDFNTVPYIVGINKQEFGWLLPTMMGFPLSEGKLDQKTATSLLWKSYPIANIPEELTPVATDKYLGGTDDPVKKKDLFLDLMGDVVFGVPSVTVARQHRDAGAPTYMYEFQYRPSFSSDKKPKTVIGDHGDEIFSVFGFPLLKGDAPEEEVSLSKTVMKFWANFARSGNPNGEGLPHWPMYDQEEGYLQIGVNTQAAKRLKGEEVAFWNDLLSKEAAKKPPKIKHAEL
Method: as §1, §2, §3

[7] = biological target: T5, peripheral anionic site (PAS) of EeAChE (Electrophorus electricus, UniProt O42275); assay type: binding; settings: EeAChE 7 μM, propidium iodide 8 μM
T5 construct: from human erythrocyte and E. electricus (EeAChE) (type VI-S); purchased Sigma-Aldrich (Germany) type VI-S; host or cells: Electrophorus electricus tissue
T5 sequence (O42275 24-633): as the sequence (O42275 24-633) above
Text: The fluorescent assay used to evaluate competitive propidium iodide displacement from the PAS of AChE is commonly used as primary screening method of AChE pro-aggregation activity inhibitors. Propidium iodide is a selective ligand for the PAS of AChE responsible for Aβ binding.
EeAChE was used owing to its high degree of purification, high activity, and lower cost than human AChE. […] The fluorescence intensity of propidium iodide bound with AChE increases several times.
To determine the degree of displacement (% displacement) of propidium iodide from the PAS of AChE, EeAChE (final concentration 7 μM) was incubated with the test compound at a concentration of 3 and 20 μM in 1 mM Tris-HCl buffer pH 8.0, 25 °C for 15 min. Then, propidium iodide solution (final concentration 8 μM) was added, the samples were incubated for 15 min and the fluorescence spectrum (530 nm (excitation) and 600 nm (emission)) was taken. Donepezil and tacrine were used as reference compounds. The blank contained propidium iodide of the same concentration in 1 mM Tris-HCl buffer pH 8.0. The measurements were carried out in triplicate on a microplate reader FLUOStar Optima (BMG Labtech Germany).
The degree of displacement (% displacement) of propidium iodide from the peripheral anionic site of AChE was calculated by the following formula: %Displacement=100−(IFAChE+Propidium+inhibitor/IFAChE+Propidium)[…], where IFAChE + Propidium is the fluorescence intensity of the propidium associated with AChE in the absence of the test compound (taken as 100%), and IFAChE + Propidium + inhibitor is the fluorescence intensity of the propidium associated with AChE in the presence of the test compound.

[8] = ABTS radical cation scavenging assay; settings: 1 h incubation; for ABTS·+ scavenging activity, TEAC value: Trolox equivalent antioxidant capacity, ratio of slopes compound/Trolox
Method: This assay is based on the production of a stable dark green ABTS cation-radical (ABTS^·+) by incubating ABTS ([2,2′-azino-bis(3-eth-ylbenzothiazoline-6-sulfonic acid diammonium salt)) with potassium persulfate. […] The ABTS radical-scavenging activity of the compounds was measured according to an established method[66] with some modifications, at 30 °С in the dark; incubation time was 1 hour. […] The results were expressed as TEAC values (Trolox equivalent antioxidant capacity) calculated by dividing the slope of ABTS^·+ concentration decrease versus the antioxidant concentration by the slope of the Trolox plot.
Radical scavenging activity of the compounds was assessed using an ABTS radical decolorization assay[66] with some minor modifications. ABTS (2,2′-azino-bis-(3-ethylbenzothiazoline-6-sulfonic acid) diammonium salt) was purchased from TCI (Tokyo, Japan); potassium persulfate (di-potassium peroxodisulfate) and Trolox (6-hydroxy-2,5,7,8-tetramethychroman-2-carboxylic acid were obtained from Sigma-Aldrich Chemical Co. (St. Louis, MO, USA). Ethanol was HPLC grade. Aqueous solutions were prepared using deionized water.
Trolox was used as the antioxidant standard. A 5 mM solution of Trolox was prepared in DMSO for use as stock. Fresh working solutions of known concentrations (1–100 μM) were prepared on the day of experiments and used for calibration and as positive controls for ABTS radical cation (ABTS^•+) scavenging activity. ABTS was dissolved in deionized water to a 7 mM concentration. […] Fresh working ABTS^•+ solution was prepared for each assay.
The radical scavenging capacity of the compounds was analyzed by mixing 10 μl of compound with 240 μl of ABTS^•+ working solution. […] Ethanol blanks were run in each assay. Values were obtained from three replicates of each sample and three independent experiments.
Antioxidant capacity as a Trolox equivalent (TEAC values) was determined as the ratio between the slopes obtained from the linear correlation for concentrations of test compounds and Trolox with absorbance of ABTS radical.

T1 sequence (P22303 32-617 isoform P22303-2 limits assumed): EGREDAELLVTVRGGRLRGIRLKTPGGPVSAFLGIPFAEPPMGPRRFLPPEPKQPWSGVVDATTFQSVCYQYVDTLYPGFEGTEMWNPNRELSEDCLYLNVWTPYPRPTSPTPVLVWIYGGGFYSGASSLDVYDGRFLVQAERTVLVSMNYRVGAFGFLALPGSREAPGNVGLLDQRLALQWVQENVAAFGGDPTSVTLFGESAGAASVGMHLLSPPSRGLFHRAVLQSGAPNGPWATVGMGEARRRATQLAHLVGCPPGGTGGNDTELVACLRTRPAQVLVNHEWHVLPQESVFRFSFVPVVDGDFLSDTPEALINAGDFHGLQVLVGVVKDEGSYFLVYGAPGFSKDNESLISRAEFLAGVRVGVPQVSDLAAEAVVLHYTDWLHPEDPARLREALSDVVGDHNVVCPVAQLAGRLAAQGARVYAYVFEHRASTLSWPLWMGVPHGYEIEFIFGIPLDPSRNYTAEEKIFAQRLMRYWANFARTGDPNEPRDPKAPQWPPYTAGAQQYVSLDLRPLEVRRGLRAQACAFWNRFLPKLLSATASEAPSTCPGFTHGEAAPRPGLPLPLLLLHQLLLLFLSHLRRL

Cc1ccc2c(c1)c1c(n2CCc2ccc(C)nc2)CCN(C)C1 [Dimebon, reference compound]
IC50 [1]: 36.3 ± 3.59 µM
IC50 [2]: 32.4 ± 3.5 µM
IC50 [3]: 5.76 ± 0.51 µM
IC50 [4]: > 30 µM
ORAC TE value [5]: 1.07 ± 0.08 µmol Trolox/ µmol comp.
% inhibition of CaE at 20 µM [6]: n.а.
% Displacement of propidium iodide, 3 µM ([7]; compound 3 µM): 2.8 ± 0.2%
% Displacement of propidium iodide, 20 µM ([7]; compound 20 µM): 6.0 ± 0.5%
ABTS·+ scavenging activity, TEAC value [8]: 0.004

Cc1c(C)c2c(c(C)c1O)CCC(C)(C(=O)O)O2 (stereo not drawn) [Trolox, 6-hydroxy-2,5,7,8-tetramethychroman-2-carboxylic acid, reference compound]
ORAC TE value [5]: 1.0 µmol Trolox/ µmol comp.
ABTS·+ scavenging activity, TEAC value [8]: 1.0
IC50 ([8]; concentration reducing ABTS·+ by 50%): 20.4 ± 1.7 µM
